Assays:
[1] = test system: bromegrass, downy; assay: Test D postemergence; type: in vivo, Bromus tectorum; settings: Bromus tectorum, post-emergence, Postemergence, scale 0 to 100 (0 no effect, 100 complete control), read-out: Plant response rating, Bromegrass, Downy; for pest or weed control at 16 g/ha: 16 g ai/ha; for pest or weed control at 31 g/ha: 31 g ai/ha; for pest or weed control at 62 g/ha: 62 g ai/ha; for pest or weed control at 125 g/ha: 125 g ai/ha
Source text: (§1) Seeds of plant species selected from bluegrass (annual bluegrass, Poa annua), blackgrass (Alopecurus myosuroides), canarygrass (littleseed canarygrass, Phalaris minor), chickweed (common chickweed, Stellaria media), galium (catchweed bedstraw, Galium aparine), bromegrass, downy (downy bromegrass, Bromus tectorum), field poppy (Papaver rhoeas), field violet (Viola arvensis), green foxtail (Setaria viridis), deadnettle (henbit deadnettle, Lamium amplexicaule), Italian ryegrass (Lolium multiflorum), kochia (Kochia scoparia), lambsquarters (Chenopodium album), oilseed rape (Brassica napus), pigweed (Amaranthus retroflexus), chamomile (scentless chamomile, Matricaria inodora), Russian thistle (Salsola kali), speedwell (bird's-eye speedwell, Veronica persica), spring barley (Hordeum vulgare), spring wheat (Triticum aestivum), wild buckwheat (Polygonum convolvulus), wild mustard (Sinapis arvensis), wild oat (Avena fatua), wild radish (Raphanus raphanistrum), windgrass (Apera spica-venti), winter barley (Hordeum vulgare), and winter wheat (Triticum aestivum) were planted into a silt loam soil and treated preemergence with test chemicals formulated in a non-phytotoxic solvent mixture which included a surfactant.
(§2) At the same time, these species were planted in pots containing Redi-Earth® planting medium (Scotts Company, 14111 Scottslawn Road, Marysville, Ohio 43041) comprising spaghnum peat moss, vermiculite, wetting agent and starter nutrients and treated with postemergence applications of the test chemicals formulated in the same manner. Plants ranged in height from 2 to 18 cm (1- to 4-leaf stage). Treated plants and controls were maintained in a controlled growth environment for 7 to 21 days after which time all species were compared to controls and visually evaluated. Plant response ratings, summarized in Table D, are based on a scale of 0 to 100 where 0 is no effect and 100 is complete control. A dash (-) response means no test result.

[2] = test system: green foxtail; assay: Test D preemergence; type: in vivo, Setaria viridis; settings: Setaria viridis, pre-emergence; for pest or weed control at 16 g/ha: 16 g ai/ha, scale 0 (no effect) to 100 (complete control), read-out: Plant response rating, Foxtail, Green; for pest or weed control at 31 g/ha: 31 g ai/ha; for pest or weed control at 31 g/ha / pest or weed control at 62 g/ha / pest or weed control at 125 g/ha: scale 0-100, read-out: Plant response rating, Foxtail, Green; for pest or weed control at 62 g/ha: 62 g ai/ha; for pest or weed control at 125 g/ha: 125 g ai/ha
Source text: as §1, §2

[3] = test system: kochia; assay: Test D postemergence; type: in vivo, Kochia scoparia; settings: Bassia scoparia, post-emergence; for pest or weed control at 16 g/ha: 16 g ai/ha, scale 0-100, read-out: Plant response rating, Kochia; for pest or weed control at 31 g/ha: 31 g ai/ha; for pest or weed control at 31 g/ha / pest or weed control at 62 g/ha / pest or weed control at 125 g/ha: scale 0 to 100 (0 no effect, 100 complete control), read-out: Plant response rating, Kochia; for pest or weed control at 62 g/ha: 62 g ai/ha; for pest or weed control at 125 g/ha: 125 g ai/ha
Outline: (§3)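 Seeds sown in silt loam soil got preemergence sprays; plants in peat/vermiculite potting medium were sprayed postemergence at 2–18 cm (1- to 4-leaf stage). Chemicals were formulated in a non-phytotoxic solvent mixture with surfactant. After 7 to 21 days in a controlled environment, injury was rated visually versus controls, 0 (no effect) to 100 (complete control).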

[4] = test system: canarygrass; assay: Test D postemergence; type: in vivo, Phalaris minor; settings: Phalaris minor, post-emergence; for pest or weed control at 16 g/ha: 16 g ai/ha, scale 0-100, read-out: Plant response rating, Canarygrass; for pest or weed control at 31 g/ha: 31 g ai/ha; for pest or weed control at 31 g/ha / pest or weed control at 62 g/ha / pest or weed control at 125 g/ha: scale 0 to 100 (0 no effect, 100 complete control), read-out: Plant response rating, Canarygrass; for pest or weed control at 62 g/ha: 62 g ai/ha; for pest or weed control at 125 g/ha: 125 g ai/ha
Outline: as §3

[5] = test system: lambsquarters; assay: Test D postemergence; type: in vivo, Chenopodium album; settings: Chenopodium album, post-emergence; for pest or weed control at 16 g/ha: 16 g ai/ha, scale 0-100, read-out: Plant response rating, Lambsquarters; for pest or weed control at 31 g/ha: 31 g ai/ha; for pest or weed control at 31 g/ha / pest or weed control at 62 g/ha / pest or weed control at 125 g/ha: scale 0 to 100 (0 no effect, 100 complete control), read-out: Plant response rating, Lambsquarters; for pest or weed control at 62 g/ha: 62 g ai/ha; for pest or weed control at 125 g/ha: 125 g ai/ha
Outline: as §3

[6] = test system: chickweed; assay: Test D preemergence; type: in vivo, Stellaria media; settings: Stellaria media, pre-emergence; for pest or weed control at 16 g/ha: 16 g ai/ha, scale 0 (no effect) to 100 (complete control), read-out: Plant response rating, Chickweed; for pest or weed control at 31 g/ha: 31 g ai/ha; for pest or weed control at 31 g/ha / pest or weed control at 62 g/ha / pest or weed control at 125 g/ha: scale 0-100, read-out: Plant response rating, Chickweed; for pest or weed control at 62 g/ha: 62 g ai/ha; for pest or weed control at 125 g/ha: 125 g ai/ha
Outline: as §3

[7] = test system: wild buckwheat; assay: Test D postemergence; type: in vivo, Polygonum convolvulus; settings: Fallopia convolvulus, post-emergence, Postemergence, scale 0 to 100 (0 no effect, 100 complete control), read-out: Plant response rating, Buckwheat, Wild; for pest or weed control at 16 g/ha: 16 g ai/ha; for pest or weed control at 31 g/ha: 31 g ai/ha; for pest or weed control at 62 g/ha: 62 g ai/ha; for pest or weed control at 125 g/ha: 125 g ai/ha
Source text: as §1, §2

[8] = test system: galium; assay: Test D postemergence; type: in vivo, Galium aparine; settings: Galium, post-emergence; for pest or weed control at 16 g/ha: 16 g ai/ha, scale 0-100, read-out: Plant response rating, Galium; for pest or weed control at 31 g/ha: 31 g ai/ha; for pest or weed control at 31 g/ha / pest or weed control at 62 g/ha / pest or weed control at 125 g/ha: scale 0 to 100 (0 no effect, 100 complete control), read-out: Plant response rating, Galium; for pest or weed control at 62 g/ha: 62 g ai/ha; for pest or weed control at 125 g/ha: 125 g ai/ha
Source text: as §1, §2

[9] = test system: windgrass; assay: Test D postemergence; type: in vivo, Apera spica-venti; settings: Apera spica-venti, post-emergence; for pest or weed control at 16 g/ha: 16 g ai/ha, scale 0-100, read-out: Plant response rating, Windgrass; for pest or weed control at 31 g/ha: 31 g ai/ha; for pest or weed control at 31 g/ha / pest or weed control at 62 g/ha / pest or weed control at 125 g/ha: scale 0 to 100 (0 no effect, 100 complete control), read-out: Plant response rating, Windgrass; for pest or weed control at 62 g/ha: 62 g ai/ha; for pest or weed control at 125 g/ha: 125 g ai/ha
Outline: as §3

[10] = test system: wild mustard; assay: Test D postemergence; type: in vivo, Sinapis arvensis; settings: Brassica, post-emergence; for pest or weed control at 16 g/ha: 16 g ai/ha, scale 0-100, read-out: Plant response rating, Mustard, Wild; for pest or weed control at 31 g/ha: 31 g ai/ha; for pest or weed control at 31 g/ha / pest or weed control at 62 g/ha / pest or weed control at 125 g/ha: scale 0 to 100 (0 no effect, 100 complete control), read-out: Plant response rating, Mustard, Wild; for pest or weed control at 62 g/ha: 62 g ai/ha; for pest or weed control at 125 g/ha: 125 g ai/ha
Outline: as §3

[11] = test system: blackgrass; assay: Test D preemergence; type: in vivo, Alopecurus myosuroides; settings: Alopecurus myosuroides, pre-emergence; for pest or weed control at 16 g/ha: 16 g ai/ha, scale 0 (no effect) to 100 (complete control), read-out: Plant response rating, Blackgrass; for pest or weed control at 31 g/ha: 31 g ai/ha; for pest or weed control at 31 g/ha / pest or weed control at 62 g/ha / pest or weed control at 125 g/ha: scale 0-100, read-out: Plant response rating, Blackgrass; for pest or weed control at 62 g/ha: 62 g ai/ha; for pest or weed control at 125 g/ha: 125 g ai/ha
Outline: as §3

## FC(F)(F)COc1cnn(-c2ccccc2Oc2ncc(Cl)cn2)c1 [Compound 138, 5-chloro-2-[2-[4-(2,2,2-trifluoroethoxy)-1H-pyrazol-1-yl]phenoxy]pyrimidine]
[1]
  pest or weed control at 16 g/ha: 0%
  pest or weed control at 31 g/ha: 0%
  pest or weed control at 62 g/ha: 5%
  pest or weed control at 125 g/ha: 5%
[2]
  pest or weed control at 16 g/ha: 0%
  pest or weed control at 31 g/ha: 0%
  pest or weed control at 62 g/ha: 20%
  pest or weed control at 125 g/ha: 100%
[3]
  pest or weed control at 16 g/ha: 25%
  pest or weed control at 31 g/ha: 40%
  pest or weed control at 62 g/ha: 55%
  pest or weed control at 125 g/ha: 75%
[4]
  pest or weed control at 16 g/ha: 5%
  pest or weed control at 31 g/ha: 10%
  pest or weed control at 62 g/ha: 10%
  pest or weed control at 125 g/ha: 15%
[5]
  pest or weed control at 16 g/ha: 55%
  pest or weed control at 31 g/ha: 60%
  pest or weed control at 62 g/ha: 60%
  pest or weed control at 125 g/ha: 60%
[6]
  pest or weed control at 16 g/ha: 100%
  pest or weed control at 31 g/ha: 100%
  pest or weed control at 62 g/ha: 100%
  pest or weed control at 125 g/ha: 100%
[7]
  pest or weed control at 16 g/ha: 65%
  pest or weed control at 31 g/ha: 70%
  pest or weed control at 62 g/ha: 65%
  pest or weed control at 125 g/ha: 80%
[8]
  pest or weed control at 16 g/ha: 70%
  pest or weed control at 31 g/ha: 70%
  pest or weed control at 62 g/ha: 75%
  pest or weed control at 125 g/ha: 75%
[9]
  pest or weed control at 16 g/ha: 0%
  pest or weed control at 31 g/ha: 0%
  pest or weed control at 62 g/ha: 15%
  pest or weed control at 125 g/ha: 20%
[10]
  pest or weed control at 16 g/ha: 65%
  pest or weed control at 31 g/ha: 75%
  pest or weed control at 62 g/ha: 75%
  pest or weed control at 125 g/ha: 75%
[11]
  pest or weed control at 16 g/ha: 0%
  pest or weed control at 31 g/ha: 0%
  pest or weed control at 62 g/ha: 25%
  pest or weed control at 125 g/ha: 30%

## FC(F)(F)c1cn(-c2ccccc2Oc2ncc(Cl)cn2)nn1 [Compound 166, 5-chloro-2-[2-[4-(trifluoromethyl)-1H-1,2,3-triazol-1-yl]phenoxy]pyrimidine]
[1]
  pest or weed control at 16 g/ha: 15%
  pest or weed control at 31 g/ha: 20%
  pest or weed control at 62 g/ha: 35%
  pest or weed control at 125 g/ha: 50%
[2]
  pest or weed control at 16 g/ha: 25%
  pest or weed control at 31 g/ha: 65%
  pest or weed control at 62 g/ha: 100%
  pest or weed control at 125 g/ha: 100%
[3]
  pest or weed control at 16 g/ha: 65%
  pest or weed control at 31 g/ha: 65%
  pest or weed control at 62 g/ha: 90%
  pest or weed control at 125 g/ha: 95%
[4]
  pest or weed control at 16 g/ha: 20%
  pest or weed control at 31 g/ha: 35%
  pest or weed control at 62 g/ha: 50%
  pest or weed control at 125 g/ha: 55%
[5]
  pest or weed control at 16 g/ha: 80%
  pest or weed control at 31 g/ha: 90%
  pest or weed control at 62 g/ha: 95%
  pest or weed control at 125 g/ha: 95%
[6]
  pest or weed control at 16 g/ha: 85%
  pest or weed control at 31 g/ha: 95%
  pest or weed control at 62 g/ha: 95%
  pest or weed control at 125 g/ha: 100%
[7]
  pest or weed control at 16 g/ha: 70%
  pest or weed control at 31 g/ha: 95%
  pest or weed control at 62 g/ha: 95%
  pest or weed control at 125 g/ha: 100%
[8]
  pest or weed control at 16 g/ha: 70%
  pest or weed control at 31 g/ha: 75%
  pest or weed control at 62 g/ha: 80%
  pest or weed control at 125 g/ha: 90%
[9]
  pest or weed control at 16 g/ha: 15%
  pest or weed control at 31 g/ha: 25%
  pest or weed control at 62 g/ha: 35%
  pest or weed control at 125 g/ha: 55%
[10]
  pest or weed control at 16 g/ha: 75%
  pest or weed control at 31 g/ha: 80%
  pest or weed control at 62 g/ha: 85%
  pest or weed control at 125 g/ha: 100%
[11]
  pest or weed control at 16 g/ha: 10%
  pest or weed control at 31 g/ha: 55%
  pest or weed control at 62 g/ha: 70%
  pest or weed control at 125 g/ha: 95%

— US9695155B2, “Herbicidal substituted pyrimidinyloxy benzene compounds” (E. I. DU PONT DE NEMOURS AND COMPANY, priority 2013, dated 2017)
